From BindingDB's records for doi:10.1016/j.bmcl.2008.01.067 (Spot-Ea3857, 2008)

Molecular target: Peroxisome proliferator-activated receptor gamma (Homo sapiens) (UniProt P37231)
Experiment: Agonist activity at human PPARgamma at 100 uM by GAL4 transactivation assay relative to Rosiglitazone

Row | EC50 [µM] | SMILES
1 | 0.195 | COC(=O)C(Cc1ccc(OCCN2CCC(C)(C)c3cc(C(N=O)c4ccccc4)ccc32)cc1)C(=O)OC (centres undefined) [dimethyl 2-(4-(2-(6-((hydroxyimino)(phenyl)methyl)-4,4-dimethyl-3,4-dihydroquinolin-1(2H)-yl)ethoxy)benzyl)malonate]
2 | 0.037 | CCO[C@@H](Cc1ccc(OCCc2ccc(OS(C)(=O)=O)cc2)cc1)C(=O)O [(2S)-2-ethoxy-3-(4-{2-[4-(methanesulfonyloxy)phenyl]ethoxy}phenyl)propanoic acid]
3 | 0.048 | CCOC(=O)C(Cc1ccc(OCCN2CCC(C)(C)c3cc(C(N=O)c4ccccc4)ccc32)cc1)OCC (centres undefined) [ethyl 2-ethoxy-3-(4-(2-(6-((hydroxyimino)(phenyl)methyl)-4,4-dimethyl-3,4-dihydroquinolin-1(2H)-yl)ethoxy)phenyl)propanoate]
4 | 0.152 | COC(=O)C(Cc1ccc(OCCN2CCC(C)(C)c3cc(C(=O)c4ccccc4)ccc32)cc1)C(=O)OC [dimethyl 2-(4-(2-(6-benzoyl-4,4-dimethyl-3,4-dihydroquinolin-1(2H)-yl)ethoxy)benzyl)malonate]
